Entries after “also recorded” stand apart in the source; their conditions may differ.
Columns and labels:
Type in all cases: cell-based
OVCAR5 cells [1] = test: Wound-healing (scratch) assay, OVCAR5
Protocol: (§1) For the scratch assay, confluent 6-well plates were scratched with a pipette tip, washed and treated with compounds or vehicle. The plate was photographed at set time points and the area of wound closure was quantified with ImageJ. Cell migration was assessed by using Transwell inserts (8 μm pore size, Merck-Millipore, Watford, UK). Briefly, 15,000 cells were seeded in the upper chambers of trans-wells in serum-free media containing compounds or control, while media containing 10% serum was added to the lower chamber. After 18 hours, cells invaded through the transwells were fixed with warm 4% PFA for 20 min at room temperature and stained with crystal violet for 3 min. The membranes were removed, mounted on cover slides and cells were counted using a microscope at 40× magnification.

SKOV3 cells [2] = test: Wound-healing (scratch) assay, SKOV3
Protocol: as §1

TG2 [3] = target: T1, TG2 (Homo sapiens, UniProt P21980); test: Western blot analysis of TG2 degradation in SKOV3 cells; settings: for TG2 degradation (western blot): 6 hours, up to 10 μM; for TG2 degradation with proteasome inhibitor MG132 co-treatment: 10 μM compound 6 hrs, MG132 20 μM 8 hrs
T1 construct: tested in multiple ovarian cancer cell lines that express TG2 for their ability to degrade the protein; endogenous in cells; host or cells: OVCAR5 and SKOV3 ovarian cancer cells
T1 sequence (P21980 1-687): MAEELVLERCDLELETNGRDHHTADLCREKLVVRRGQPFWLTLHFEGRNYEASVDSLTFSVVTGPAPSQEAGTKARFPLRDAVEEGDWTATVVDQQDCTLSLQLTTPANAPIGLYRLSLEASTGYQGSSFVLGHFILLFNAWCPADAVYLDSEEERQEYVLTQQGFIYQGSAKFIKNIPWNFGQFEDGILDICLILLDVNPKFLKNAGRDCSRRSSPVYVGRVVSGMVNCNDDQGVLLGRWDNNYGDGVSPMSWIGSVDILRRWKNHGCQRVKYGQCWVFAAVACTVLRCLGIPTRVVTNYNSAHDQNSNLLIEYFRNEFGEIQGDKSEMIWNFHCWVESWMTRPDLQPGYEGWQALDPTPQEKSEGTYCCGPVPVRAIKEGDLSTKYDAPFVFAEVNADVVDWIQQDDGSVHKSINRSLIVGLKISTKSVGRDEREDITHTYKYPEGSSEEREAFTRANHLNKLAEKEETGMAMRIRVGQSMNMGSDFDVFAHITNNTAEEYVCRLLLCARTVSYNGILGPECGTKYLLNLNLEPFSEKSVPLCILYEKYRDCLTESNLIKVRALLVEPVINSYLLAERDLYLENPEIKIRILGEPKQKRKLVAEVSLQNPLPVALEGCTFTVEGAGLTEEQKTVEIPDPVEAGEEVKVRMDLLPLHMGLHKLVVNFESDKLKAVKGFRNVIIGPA
Protocol: (§2) SKOV3 cells were purchased from ATCC. OVCAR5 cells were obtained from Dr. Marcus Peter at Northwestern University. Cells were maintained at 37° C. in an environment of 5% CO2 and 100% humidity. The media used for culturing the cell lines are included in Table 1. Cells lines used in all experiments were at low-passages and were confirmed to be pathogen and mycoplasma-free by Charles River Animal Diagnostic Services. Cell lines were authenticated by IDEXX BioAnalytics with short tandem repeat (STR) profiling. MG132 was obtained from SelleckChem. Anti-TG2 antibody (cat #: MAB3839-I-100UG) was purchased from Millipore Sigma, GAPDH antibody (cat #: H86504M) was purchased from Meridian Bioscience.
(§3) Briefly, SKOV3 and OVCAR5 cells were seeded on 6 cm dishes and treated with different concentrations of compounds at different time points. Proteins were extracted using RIPA buffer and quantified using the Bradford assay. After gel electrophoresis and transfer, PDVF membranes were blocked with TBS-Tween 5% BSA for one hour and incubated with primary antibodies 20 (1:1000 dilution, overnight at 4° C.). After incubation with the secondary antibody (anti rabbit/mouse-horseradish peroxidase 1:1000 dilution) for 1 h at room temperature, signal was developed using SuperSignal West Pico PLUS Chemiluminescent Substrate (Thermo Fisher Scientific cat #: 34580) and captured with an ImageQuant LAS 4000 machine. To detect additional proteins, membranes were treated with Restore Western Blot Stripping Buffer (Thermo Fisher Scientific cat #: 21059), blocked, and then incubated with primary antibody.

OVCAR5 cells [4] = test: Solid phase adhesion assay on fibronectin, OVCAR5
Protocol: (§4) Briefly, wells were coated with 10 μg/ml fibronectin diluted in PBS for one hour. 30,000 cells pretreated with compounds for 6 hours were seeded and allowed to attach for 30 minutes. After washing with PBS to remove unattached cells, cells adhering to coated wells were quantified by using the CCK-8 assay (ApexBio), following the manufacturer's protocol. Relative absorbance measured at 496 nm was used to estimate the relative number of the cell attached to fibronectin coated wells.

SKOV3 cells [5] = test: Solid phase adhesion assay on fibronectin, SKOV3
Protocol: as §4

TG2 [6] = target: T1, TG2; test: Western blot analysis of TG2 degradation in OVCAR5 cells; settings: 6 hours, 0.1-10 μM
Protocol: as §2, §3

| Structure (SMILES) | cell migration, wound-healing assay (OVCAR5 cells [1]) | cell migration, wound-healing assay (SKOV3 cells [2]) | TG2 degradation (western blot) (TG2 [3]) | adhesion of cells to fibronectin (OVCAR5 cells [4]) | adhesion of cells to fibronectin (SKOV3 cells [5]) | TG2 degradation (western blot) (TG2 [6]) | TG2 degradation with proteasome inhibitor MG132 co-treatment (TG2 [3]) |
| --- | --- | --- | --- | --- | --- | --- | --- |
| Cc1cc(N(C)CCOCCOCCOCCOCCOCCC(=O)N[C@H](C(=O)N2C[C@@H](O)C[C@H]2C(=O)NCc2ccc(-c3scnc3C)cc2)C(C)(C)C)nc(Nc2ccc(NC(=O)Cc3ccccc3)cc2)n1 [Compound 13, (2S,4S)-1-((S)-22-(tert-butyl)-2-(6-methyl-2-((4-(2-phenylacetamido)phenyl)amino)pyrimidin-4-yl)-20-oxo-5,8,11,14,17-pentaoxa-2,21-diazatricosan-23-oyl)-4-hydroxy-N-(4-(4-methylthiazol-5-yl)benzyl)pyrrolidine-2-carboxamide] | did not affect cell migration | did not affect cell migration | did not induce TG2 degradation; also recorded: No degradation of TG2 was observed | did not affect | did not affect | did not induce TG2 degradation; also recorded: No degradation of TG2 was observed | – |
| Cc1cc(N(C)CCOCCSC(C)(C)[C@H](NC(=O)C2(F)CC2)C(=O)N2C[C@H](O)C[C@H]2C(=O)NCc2ccc(-c3scnc3C)cc2)nc(Nc2ccc(NC(=O)Cc3ccccc3)cc2)n1 [Compound P405] | – | reduce the migration | degrade TG2 | – | reduce the migration and adhesion capability | – | blocked |
| Cc1cc(N(C)CCOCCOCCOCCSC(C)(C)[C@H](NC(=O)C2(F)CC2)C(=O)N2C[C@H](O)C[C@H]2C(=O)NCc2ccc(-c3scnc3C)cc2)nc(Nc2ccc(NC(=O)Cc3ccccc3)cc2)n1 [Compound P404] | – | reduce the migration | degrade TG2 | – | reduce the migration and adhesion capability | – | blocked |
| Cc1cc(N(C)CCOCCC(=O)N[C@H](C(=O)N2C[C@@H](O)C[C@H]2C(=O)NCc2ccc(-c3scnc3C)cc2)C(C)(C)C)nc(Nc2ccc(NC(=O)Cc3ccccc3)cc2)n1 [Compound 12, (2S,4S)-1-((S)-3,3-dimethyl-2-(3-(2-(methyl(6-methyl-2-((4-(2-phenylacetamido)phenyl)amino)pyrimidin-4-yl)amino)ethoxy)propanamido)butanoyl)-4-hydroxy-N-(4-(4-methylthiazol-5-yl)benzyl)pyrrolidine-2-carboxamide] | did not affect cell migration | did not affect cell migration | did not induce TG2 degradation; also recorded: No degradation of TG2 was observed | did not affect | did not affect | did not induce TG2 degradation; also recorded: No degradation of TG2 was observed | – |
